Experiments:
Assay type in all cases: cell-based
[1] = system: AGS cell strain; experiment: Measurement of apoptosis (Annexin V staining, FACS); conditions: for Relative Apoptotic cell: AGS, mimic 10 nM, 10 uM 5-FU 24 h after transfection, then 48 hours, Annexin V, relative to scrambled control (=1), n=9; for effect on cell growth and apoptosis (summary statement): mimics transfected to AGS, tumor cell strain not infected with EBV
Outline: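 EBV-negative AGS cells (2×10^5/well) were transfected with 10 nM synthetic miRNA. Twenty-four hours later they received 10 uM 5-FU for 48 h at 37 °C. The apoptotic cell ratio was measured by PE Annexin V staining and FACS.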

[2] = system: AGS cell strain; experiment: Effect on cell cycle (propidium iodide staining, FACS, sub G1); conditions: mimic 10 nM, 10 uM 5-FU 24 h after transfection, then 48 hours, relative to scrambled control (=1)
Outline: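 AGS gastric cells (EBV-negative), 2×10^5 per well, were transfected with synthetic miRNA (10 nM). DNA was stained with propidium iodide, and the cell-cycle-altered fraction was measured by FACS.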

[3] = system: AGS cell strain; experiment: Cell growth test (CCK-8 assay) after transfection of BART miRNA mimics; conditions: mimic 10 nM, 72 hours after transfection, relative to scrambled control (=1), n=9
Outline: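 EBV-negative AGS gastric cells in RPMI1640 with 10% FBS, seeded 1×10^3 cells/well and transfected with synthetic mature BART miRNA mimics (10 nM; dose series 1, 3, 10, 30 nM) via G-fectin. Growth read by CCK-8 after 72 h (or over time), 2 h at 37 °C, absorbance measured.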

Row | Substance | Relative Apoptotic cell [1] | Relative Sub G1 [2] | Relative Sub G1 ([2]; listed as 20-5p) | Relative Cell Growth [3] | Relative Apoptotic cell ([1]; listed as 21-3p) | effect on cell growth and apoptosis (summary statement) [1] | Relative Apoptotic cell ([1]; listed as 22-5p)
1 | BART20-5p: EBV BART miRNA mimic, double stranded RNA; sense SEQ NO: 73, antisense SEQ NO: 74 (sense UAGCAGGCAUGUCUUCAUUCC; antisense GGAAUGAAGACAUGCCUGCUA; chemistry not given here) | 1.075 | 1.379 | increased | 1.245 | – | – | –
2 | BART21-3p: EBV BART miRNA mimic, double stranded RNA; sense SEQ NO: 35, antisense SEQ NO: 36 (sense CUAGUUGUGCCCACUGGUGUUU; antisense AAACACCAGUGGGCACAACUAG; chemistry not given here) | 1.155 | 0.965 | – | 1.215 | significantly higher | inhibit cell growth and promote apoptosis | –
3 | BART21-5p: EBV BART miRNA mimic, double stranded RNA; sense SEQ NO: 33, antisense SEQ NO: 34 (sense UCACUAGUGAAGGCAACUAAC; antisense GUUAGUUGCCUUCACUAGUGA; chemistry not given here) | 0.9207 | 1.087 | – | 1.304 | – | – | –
4 | BART22-3p: EBV BART miRNA mimic, double stranded RNA; sense SEQ NO: 55, antisense SEQ NO: 56 (sense UUACAAAGUCAUGGUCUAGUAGU; antisense ACUACUAGACCAUGACUUUGUAA; chemistry not given here) | 1.106 | 1.054 | – | 1.495 | – | – | –
5 | BART22-5p: EBV BART miRNA mimic, double stranded RNA; sense SEQ NO: 53, antisense SEQ NO: 54 (sense UGCUAGACCCUGGAGUUGAACC; antisense GGUUCAACUCCAGGGUCUAGCA; chemistry not given here) | 1.197 | 0.9654 | – | 1.529 | – | inhibit cell growth and promote apoptosis | significantly higher

From patent US9243247B2, “Composition for promoting apoptosis or inhibiting cell growth, comprising epstein-barr virus microrna” (Catholic University Industry Academic Cooperation Foundation, priority 2011, dated 2016)
